Laboratory results published in article PMC5778071, “Development of matrix metalloproteinase-targeted probes for lung inflammation detection with positron emission tomography” (Scientific Reports, 2018).

Legend:
[1] = target: T1, recombinant human MMP-13 (Homo sapiens, UniProt P45452); experiment: Competitive fluorogenic enzyme activity assay, MMP-13; type: biochemical; details: fluorogenic substrate 5 μM, 5 nM enzyme, 30 min; read-out: IC50 toward MMP-13
T1 construct: purchased Anaspec AS72011
Description: (§1) Determination of the IC50 toward human MMP-2, MMP-9, MMP-12 and MMP-13 was performed by a competitive enzyme activity assay according to a literature procedure. The assay was performed by incubating 5 μM of the synthesized fluorogenic peptide substrate Mca-Pro-Leu-Gly-Leu-Dpa(Dnp)-Ala-Arg-NH2 with 5 nM recombinant human MMP-2 (AS72005, Anaspec Inc., CA, USA), MMP-9 (911-MP, R&D Systems, MN, USA), MMP-12 (917-MP, R&D Systems) and MMP-13 (AS72011, Anaspec) along with various concentrations of ML5, I-ML5, PFB, PFP, IPFB, and IPFP (0.2–365 nM) in a buffer (pH 7.5, 50 mM tris(hydroxymethyl)aminomethane, 10 mM calcium chloride, 150 mM sodium chloride, and 0.01% Brij-35) containing 5% dimethyl sulfoxide. The increase in fluorescence over time was measured using a SpectraMax M2e microplate reader (Molecular Devices Inc., CA, USA) with an excitation wavelength of 325 nm and an emission wavelength of 395 nm. The fluorescence intensity after 30 min was plotted as a function of the concentration of each of the compounds on a logarithmic scale to produce an inhibition curve that was subsequently fit with a sigmoidal function by a least squares method. The IC50 values were calculated from the inhibition curves using GraphPad Prism 6 (GraphPad Software, Inc., CA, USA).

[2] = target: T2, recombinant human MMP-9 (Homo sapiens, UniProt P14780); experiment: Competitive fluorogenic enzyme activity assay, MMP-9; type: biochemical; details: fluorogenic substrate 5 μM, 5 nM enzyme, 30 min; read-out: IC50 toward MMP-9
T2 construct: purchased R&D Systems 911-MP
T2 sequence (P14780 94-707): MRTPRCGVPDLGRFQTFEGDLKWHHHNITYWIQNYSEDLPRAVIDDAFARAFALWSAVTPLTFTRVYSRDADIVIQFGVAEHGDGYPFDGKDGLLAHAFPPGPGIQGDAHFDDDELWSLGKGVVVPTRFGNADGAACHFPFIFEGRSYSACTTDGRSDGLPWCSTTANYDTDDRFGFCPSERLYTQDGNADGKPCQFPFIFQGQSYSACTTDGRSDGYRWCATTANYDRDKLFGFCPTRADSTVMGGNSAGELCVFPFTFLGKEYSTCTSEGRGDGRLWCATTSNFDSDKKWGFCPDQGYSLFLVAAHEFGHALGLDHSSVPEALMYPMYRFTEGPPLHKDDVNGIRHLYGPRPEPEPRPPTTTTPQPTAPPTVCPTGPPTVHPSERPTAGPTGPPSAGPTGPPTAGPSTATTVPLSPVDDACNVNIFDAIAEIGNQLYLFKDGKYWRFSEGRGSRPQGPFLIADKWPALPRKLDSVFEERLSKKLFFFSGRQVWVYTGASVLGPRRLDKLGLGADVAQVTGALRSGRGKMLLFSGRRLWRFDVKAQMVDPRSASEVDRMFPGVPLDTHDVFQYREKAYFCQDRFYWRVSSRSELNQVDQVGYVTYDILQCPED
Description: as §1

[3] = system: MMP-12; design: method as in PMID 25438884; details: fluorogenic inhibition assay; cited from earlier work
[4] = system: MMP-9; design: method as in PMID 25438884; details: fluorogenic inhibition assay; cited from earlier work
[5] = target: T3, recombinant human MMP-2 (Homo sapiens, UniProt P08253); experiment: Competitive fluorogenic enzyme activity assay, MMP-2; type: biochemical; details: fluorogenic substrate 5 μM, 5 nM enzyme, 30 min; read-out: IC50 toward MMP-2
T3 construct: purchased Anaspec Inc. AS72005
T3 sequence (P08253 110-660): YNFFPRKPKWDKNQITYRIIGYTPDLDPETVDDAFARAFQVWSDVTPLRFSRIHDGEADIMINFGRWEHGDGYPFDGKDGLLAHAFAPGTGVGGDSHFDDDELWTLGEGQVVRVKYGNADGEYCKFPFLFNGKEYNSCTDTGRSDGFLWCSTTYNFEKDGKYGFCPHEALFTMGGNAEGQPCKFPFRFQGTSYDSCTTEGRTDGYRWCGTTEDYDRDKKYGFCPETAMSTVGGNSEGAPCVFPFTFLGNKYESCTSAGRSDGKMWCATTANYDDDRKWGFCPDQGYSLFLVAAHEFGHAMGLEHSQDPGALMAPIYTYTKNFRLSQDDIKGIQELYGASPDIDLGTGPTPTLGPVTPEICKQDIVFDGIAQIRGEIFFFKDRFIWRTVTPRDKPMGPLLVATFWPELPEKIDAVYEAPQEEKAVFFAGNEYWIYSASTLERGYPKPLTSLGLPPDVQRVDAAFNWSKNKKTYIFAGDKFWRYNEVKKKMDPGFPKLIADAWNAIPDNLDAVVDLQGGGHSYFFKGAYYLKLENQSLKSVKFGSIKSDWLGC
Description: as §1

[6] = target: T4, recombinant human MMP-12 (Homo sapiens, UniProt P39900); experiment: Competitive fluorogenic enzyme activity assay, MMP-12; type: biochemical; details: fluorogenic substrate 5 μM, 5 nM enzyme, 30 min; read-out: IC50 toward MMP-12
T4 construct: purchased R&D Systems 917-MP
T4 sequence (P39900 106-470): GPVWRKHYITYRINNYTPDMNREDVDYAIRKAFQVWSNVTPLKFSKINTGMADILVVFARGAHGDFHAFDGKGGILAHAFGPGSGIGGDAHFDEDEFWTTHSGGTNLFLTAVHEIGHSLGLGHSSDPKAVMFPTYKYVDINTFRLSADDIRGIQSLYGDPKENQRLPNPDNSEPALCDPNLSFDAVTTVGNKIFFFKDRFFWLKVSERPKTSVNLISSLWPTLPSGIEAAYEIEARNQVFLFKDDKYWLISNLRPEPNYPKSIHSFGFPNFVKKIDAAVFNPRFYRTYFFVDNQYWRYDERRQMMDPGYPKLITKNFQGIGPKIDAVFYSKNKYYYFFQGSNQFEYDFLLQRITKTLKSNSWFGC
Description: Determination of the IC50 toward human MMP-2, MMP-9, MMP-12 and MMP-13 was performed by a competitive enzyme activity assay according to a literature procedure. […] The increase in fluorescence over time was measured using a SpectraMax M2e microplate reader (Molecular Devices Inc., CA, USA) with an excitation wavelength of 325 nm and an emission wavelength of 395 nm. The fluorescence intensity after 30 min was plotted as a function of the concentration of each of the compounds on a logarithmic scale to produce an inhibition curve that was subsequently fit with a sigmoidal function by a least squares method. The IC50 values were calculated from the inhibition curves using GraphPad Prism 6 (GraphPad Software, Inc., CA, USA).

IC50 [1]: 22.4 ± 8.1 nM | IC50 [2]: 37.9 ± 5.2 nM | IC50 [5]: 9.6 ± 4.7 nM | IC50 [6]: 2.8 ± 0.4 nM
Structure (SMILES): CC(C)C[C@H](CC(=O)NO)C(=O)N[C@@H](Cc1ccccc1)C(=O)N[C@@H](CCCCN)C(N)=O [ML5, reference compound]
IC50 [3]: 2 nM | IC50 [4]: 19.5 nM
